Experimental findings from patent publication EP4599827A1, “DGL FOR THE INDUCTION OF ENDOTHELIAL-DERIVED NO-DEPENDENT VASODILATION” (Dr. Kurt Wolff GmbH & Co. KG, priority 2024, dated 2025) are described below.

What all share (type): cell-based, human
Experiment [1] deals with eNOS. The experiment is described as follows: Western blot of eNOS protein content in HDMECs. An excerpt: (§1) Adulte humane mikrovaskuläre Endothelzellen der Haut (HDMECs) wurden 2023 von Lonza Ltd (Basel, Schweiz) erworben und kultiviert in EBM™-2 Endothelial Cell Growth Basal Medium, ergänzt mit EGM™-2 MV Microvascular Endothelial SingleQuots™ Kit (beide von Lonza Ltd, Basel, Schweiz), enthaltend humanen epidermalen Wachstumsfaktor, vaskulären Endothelial Growth Factor, R^3-Insulin-like Growth Factor-1, Ascorbinsäure, Hydrocortison, humanen Fibroblasten-Wachstumsfaktor-Beta, fötales Rinderserum und Gentamicin/Amphotericin-B und gemäß den Richtlinien des Herstellers kultiviert. Die HDMECs wurden von 2 verschiedenen weiblichen Spendern initiiert und es wurden die Passagen 4 bis 8 wurden für die Experimente verwendet.
HDMECs wurden in 6-Well-Platten ausgesät und für 24 Stunden mit DMG-Na (0,005% und 0,05%) behandelt. Nach der Behandlung wurden die Zellen in Lysispuffer (30 mM TRIS, pH 7,6, 140 mM NaCl, 5 mM EDTA, 50 mM NaF, 1 mM Na3VO4), der mit Proteaseinhibitoren ergänzt wurde, geerntet. Nach kräftigem Vortexen und Zentrifugieren wurde der Proteingehalt der Proben unter Verwendung des Pierce BCA Protein Assay Kits (Thermo Fisher Scientific, Waltham, MA) bestimmt. Gleiche Mengen an Proteinproben wurden einer 7,5%-igen SDS-PAGE unterzogen und auf Nitrocellulose-Membranen (Bio-Rad Laboratories, Hercules, CA) übertragen. […]
On the technique in general: A western blot detects proteins with antibodies after separation by electrophoresis.

The test system of experiment [2] is eNOS. Description: Immunocytochemistry of eNOS expression in HDMECs. To be noted: semiquantitative immunocytochemistry, 24 h treatment, DMG-Na 0,005%, 0,02% and 0,05%.
Excerpt: as §1
HDMECs (5.000 Zellen pro 10 mm runde Glasdeckgläser), die mit DMG-Na (0,005%, 0,02% und 0,05%) behandelt wurden, wurden in 1% Paraformaldehyd (PFA, Merck KGaA, Darmstadt) für 10 Minuten bei Raumtemperatur fixiert und nach einem Waschschritt mit phosphatgepufferter Kochsalzlösung (PBS, Merck KGaA) für 5 Minuten mit -20 °C kalter Ethanol-Essigsäure (2:1) nachfixiert. […]

The subject of experiment [3] is HDMECs. Description: Microfluorimetric measurement of NO (DAF-FM DA) in HDMECs. To be noted: DAF-FM-DA microfluorimetry, increase vs control.
Excerpt: as §1
HDMECs wurden mit einer Dichte von 15.000 Zellen pro Well in einer schwarzen 96-WellPlatte mit klarem Boden (Greiner Bio-One, Kremsmünster, Österreich) ausgesät und in Wachstumsmedium bei 37 °C für 24 Stunden kultiviert. Anschließend wurden die Zellen mit 5 µM DAF-FM DA (4-Amino-5-methylamin-2',7'-difluororesceindiacetat) in phenolrotfreiem DMEM (beides von Thermo Fisher Scientific, Waltham, MA), ergänzt mit 0,5% FBS (Serana Europe GmbH, Brandenburg, Deutschland) für 1 Stunde bei 37 °C inkubiert. […]

Regarding `CN(C)CC(=O)O` [DMG-Na, N,N-Dimethylglycin-Natriumsalz], the “Proteingehalt von eNOS” value in experiment [1] (24 h, 0,05% DMG-Na, increase vs control, p=0,0189) is listed as “statistisch signifikant”; in experiment [1] (24 h, DMG-Na 0,005% and 0,05%, vs control), “dosisabhängig”. The “Expression von eNOS” value in experiment [2] is recorded as “Expression von eNOS nach 24-stündiger Behandlung zu erhöhen”. Moreover, the “zelluläre NO-Produktion” value in experiment [3] (0.02%, p=0,0002) is on record as “statistisch signifikant”; in experiment [3] (0.05%, p=0,0001), “statistisch signifikant”.
